Where a SMILES comes first, the peptide text is derived from it.
Columns and labels:
[1] = tested on: septo-hippocampal cultures; assay: αII-spectrin immunoblot of septo-hippocampal cultures after maitotoxin or staurosporine insult; format: cell-based, rat; conditions: maitotoxin 30 min, 1 hr; staurosporine 3 hr; anti-α-spectrin antibody FG 6090
Experimental: Septo-hippocampal cultures. Eighteen day old rat fetuses were removed from deeply anesthetized dams. Septi and hippocampi were dissected in a dissection buffer (HBSS, with 4.2 mM bicarbonate, 1 mM pyruvate, 20 mM HEPES, 3 mg/ml BSA, pH 7.25). After rinsing in DMEM-DM, tissue was dissociated by trituration through the narrow pore of a flame-constricted Pasteur pipette. Dissociated cells were resuspended in DMEM with 10% fetal calf serum (DMEM-10S) and plated on 24-well poly-L-lysine coated plastic culture plates or 12 mm of German glass (Erie Scientific Co.) at a density of 4.36×10^5 cells/mL. Cultures were maintained in a humidified incubator in an atmosphere of 5% CO2 at 37° C. After 5 days of culture, the media was changed to DMEM-DM. […] Subsequent media changes were carried out three times a week. […]
Pharmacological treatment of septo-hippocampal cells with maitotoxin. Ten day old septo-hippocampal cultures were challenged with 0.01-2.0 nM of maitotoxin (Wako Products, Richmond, Va., Cat.# 131-10731) in DMEM-DM and cell viability was monitored at various post-injury time points. […]
Treatment of cultures with staurosporine. Ten day old septo-hippocampal cultures were challenged with 0.05-2.0 μM of staurosporine (Calbiochem, La Jolla, Calif., Cat. # 569397) in DMEM-DM and cell viability was monitored at various post-injury time points. […]

[2] = tested on: calpain and caspase-3 activation in septo-hippocampal cultures; assay: Treatment of septo-hippocampal cultures with calpain, caspase and protein synthesis inhibitors; format: cell-based, rat; conditions: for antagonism of calpain and caspase-3 activation accompanying staurosporine-induced apoptosis: 37.5 μM CalpInh-II, 30 μM Z-D-DCB, pretreatment 1 hour
Experimental: Septo-hippocampal cultures. Eighteen day old rat fetuses were removed from deeply anesthetized dams. Septi and hippocampi were dissected in a dissection buffer (HBSS, with 4.2 mM bicarbonate, 1 mM pyruvate, 20 mM HEPES, 3 mg/ml BSA, pH 7.25). After rinsing in DMEM-DM, tissue was dissociated by trituration through the narrow pore of a flame-constricted Pasteur pipette. Dissociated cells were resuspended in DMEM with 10% fetal calf serum (DMEM-10S) and plated on 24-well poly-L-lysine coated plastic culture plates or 12 mm of German glass (Erie Scientific Co.) at a density of 4.36×10^5 cells/mL. Cultures were maintained in a humidified incubator in an atmosphere of 5% CO2 at 37° C. After 5 days of culture, the media was changed to DMEM-DM. […] Subsequent media changes were carried out three times a week. By day 10 in vitro, astrocytes formed a confluent monolayer beneath morphologically mature neurons.
Treatment of septo-hippocampal cultures with calpain, caspase, and protein synthesis inhibitors. Sister cultures were pretreated with either 37.5 μM calpain inhibitor-II (CalpInh-II) (Boehringer Mannheim), 30 μM of the pan-caspase inhibitor Z-D-DCB (obtained from Biochem), or 1 μg/mL of the protein synthesis inhibitor, cycloheximide (Sigma), […] The inhibitor concentrations provide optimal inhibition of calpains, caspase-3 (CPP32) proteases, and protein synthesis. […] This investigation also employed degradation of αII-spectrin to provide independent confirmation that the concentrations of CalpInh-II and Z-D-DCB used in this study to inhibit calpains and caspase-3 proteases. […] Following each experiment, cells were fixed for staining, or protein or DNA extraction was performed.
SDS-Polyacrylamide Gel electrophoresis and immunoblotting. At the end of an experiment, cells were harvested from 5 identical culture wells and collected in 15 ml centrifuge tubes and centrifuged at 3000 g for 5 min. The medium was removed and the pellet cells were rinsed with 1× DPBS. […]

CN[C@@H]1C[C@H]2O[C@@](C)([C@@H]1OC)n1c3ccccc3c3c4c(c5c6ccccc6n2c5c31)C(=O)NC4 [staurosporine]
type of cell death and protease-specific SBDP detected [1]: apoptotic cell death mediated by caspase-3 (120 kDa SBDP) but not by calpain (145 kDa SBDP)

O=C(O)CC(NC(=O)OCc1ccccc1)C(=O)COC(=O)c1c(Cl)cccc1Cl [Z-D-DCB, carbobenzoxy-Asp-CH2—OC (O)-2-6-dichlorobenzene]
antagonism of calpain and caspase-3 activation accompanying staurosporine-induced apoptosis [2]: could antagonize calpain and caspase-3 activation

CSCC[C@@H](C=O)NC(=O)[C@H](CC(C)C)NC(=O)[C@H](CC(C)C)NC(C)=O [CalpInh-II, N-acetyl-Leu-Leu-methioninal] (Ac-Leu-Leu-Met-aldehyde)
antagonism of calpain and caspase-3 activation accompanying staurosporine-induced apoptosis [2]: could antagonize calpain and caspase-3 activation

C[C@@H]1C[C@@H]([C@H](O)CC2CC(=O)NC(=O)C2)C(=O)[C@@H](C)C1 [cycloheximide]
effect on calpain and caspase activation and apoptotic cell death ([2]; 1 μg/mL cycloheximide): blocked calpain and caspase activation as well as apoptotic cell death

C=CC[C@H](C)[C@H](C)C[C@@H](O)[C@H](O)[C@@H]1CC[C@@]2(C)O[C@@]3(C)C[C@@]4(C)O[C@H]5/C=C\C[C@H]6O[C@H]7C[C@H]8O[C@H]9C[C@@]%10(C)O[C@@](C)([C@@H]%11CC[C@H]%12O[C@@]%13(C)C[C@H]%14O[C@@]%15(C)C[C@H]%16O[C@@]%17(C)C[C@@H](O)[C@H]([C@@H]%18O[C@H]%19[C@H](O)[C@@H](O)[C@H](C[C@H](O)C[C@@H](O)[C@@H]%20O[C@H]%21[C@H](O)[C@@H](O)[C@H]([C@@H]%22O[C@@H]%23[C@H](O)[C@H]%24O[C@H]%25C[C@H]%26O[C@@H](C[C@H](O)[C@@H](O)[C@H]%27O[C@H]%28[C@H](O)[C@H]%29O[C@H]%30C[C@H]%31O[C@H]%32[C@@H](O)[C@@H](O)[C@H]([C@H](C)[C@H](O)[C@H](C)CC[C@H](OS(=O)(=O)O)[C@H](O)[C@H](C)C[C@@H](O)C(=C)/C(C)=C/CO)O[C@@H]%32[C@H](O)C[C@]%31(C)O[C@@H]%30C[C@]%29(C)O[C@@H]%28C[C@H]%27O)[C@H](OS(=O)(=O)O)[C@H](O)[C@@H]%26O[C@@H]%25C[C@@H]%24O[C@H]%23[C@H](O)[C@H]%22O)O[C@H]%21C[C@H]%20O)O[C@H]%19C[C@H]%18O)O[C@@H]%17[C@H](O)[C@]%16(C)O[C@@H]%15CC[C@]%14(C)O[C@@H]%13C[C@@H]%12O%11)[C@H](O)C[C@@H]%10O[C@]9(C)CC[C@]8(C)O[C@]7(C)C[C@@H]6O[C@@H]5C[C@@H]4O[C@@H]3C[C@@H]2O1 [maitotoxin]
type of cell death and protease-specific SBDP detected [1]: necrotic cell death mediated by calpain (145 kDa SBDP) but not caspase-3 (120 kDa SBDP)
